The text below walks through data of BindingDB's records for doi:10.1021/jm00126a016 (G. D. Searle, 1989).

The target in this assay is Glutamate receptor ionotropic NMDA, PCP site (Rattus norvegicus). Nature of the assay: Inhibition of [3H]1-[1-(2-thienyl) piperidine ([3H]TCP) binding to phencyclidine receptor.
Turning to `C=CCN1C(C)Cc2ccccc2C1C` (stereo not drawn), the IC50 stood at 5.4 µM. The figure for `c1ccc(C2NCc3ccccc32)cc1` (stereo not drawn) is over 30 µM; for `CC(C)C1NCCc2ccccc21` (stereo not drawn) it is 11 µM. Under `Fc1ccc(C2NCCc3ccccc32)cc1` (stereo not drawn) stands 4.9 µM; under `c1ccc2c(c1)CCNC2c1ccc2ccccc2c1` (stereo not drawn), over 30 µM. The figure for `Clc1ccc(C2NCCc3ccccc32)cc1` (stereo not drawn) is 5.3 µM; for `CC1Cc2ccccc2C(C)N1` (stereo not drawn) it is over 30 µM; for `CN1CCc2ccccc2C1` it is over 30 µM.

One may read the IC50 as the concentration at which inhibition is half-maximal. A lower IC50 goes with higher potency.
